Reference: patent EP1561465A2, “Methods of use of fluoroquinolone compounds against bacteria” (LG Life Sciences, Ltd., priority 1999, dated 2001)
Values after ≈ are worked out from the molar mass of the structure shown. Like-named read-outs stand apart in the source and are kept apart here.

Columns and labels:
Yersinia enterocolitica = assay: MIC by agar dilution (NCCLS M7-A4), 288 enteropathogenic isolates, gemifloxacin and 15 other antimicrobials; assay type: cell-based; conditions: for MIC: Yersinia enterocolitica N= 22
Campylobacter jejuni = assay: as above; conditions: Campylobacter jejuni
Moraxella catarrhalis = assay: MIC by two-fold serial agar dilution, Sensitivity Disk agar-N (Kitasato isolates); assay type: cell-based; conditions: Moraxella catarrhalis (22)
Shigella spp. = assay: MIC by agar dilution (NCCLS M7-A4), 288 enteropathogenic isolates, gemifloxacin and 15 other antimicrobials; assay type: cell-based; conditions: for MIC: Shigella spp. N= 21
Method: [A. hydrophila (12), and A. sobria (4)], and 91 Campylobacter jejuni. […] The strains were stored in skimmed-milk at -80 °C until studied.
The plates were incubated aerobically at 35 °C for 24 h, except for Campylobacter jejuni, where a microaerophilic atmosphere was obtained by using Campy Pack (Becton Dickinson, Cockeysville, MD, USA), and incubation was for 48 h. All organisms were tested with an inoculum of ≅ 10^4 cfu/spot. MICs were defined as the lower antibiotic concentration with no visible growth.

Aeromonas spp. = assay: as above; assay type: cell-based; conditions: for MIC: Aeromonas spp. N= 16
Staphylococcus aureus = assay: microbe, parasite or virus in culture; assay type: cell-based
Haemophilus influenzae = assay: MIC by two-fold serial agar dilution, Sensitivity Disk agar-N (Kitasato isolates); assay type: cell-based; conditions: Haemophilus influenzae (24)
Hafnia alvei = assay: MIC by agar dilution (NCCLS M7-A4), 288 enteropathogenic isolates, gemifloxacin and 15 other antimicrobials; assay type: cell-based; conditions: Hafnia alvei N= 32
Salmonella spp. = assay: as above; assay type: cell-based; conditions: for MIC: Salmonella
Streptococcus pneumoniae = assay: MIC by two-fold serial agar dilution, Sensitivity Disk agar-N (Kitasato isolates); assay type: cell-based; conditions: for MIC90 / MIC / MIC50: Streptococcus pneumoniae; for MIC90: read-out: MIC90; for MIC: read-out: MIC Range; for MIC50: read-out: MIC50
[1] = 24 h, read-out: MIC (mg/L) Range

CC1(C)S[C@@H]2[C@H](NC(=O)[C@H](N)c3ccc(O)cc3)C(=O)N2[C@H]1C(=O)O [Amoxycillin, amoxycillin]
MIC (Yersinia enterocolitica; [1]): 128 mg/L (≈ 350 µM) | susceptibility of isolates (Yersinia enterocolitica; Yersinia enterocolitica): non susceptible | MIC (Yersinia enterocolitica; read-out: MIC (mg/L) 50%): 128 mg/L (≈ 350 µM) | MIC (Yersinia enterocolitica; read-out: MIC (mg/L) 90%): 128 mg/L (≈ 350 µM) | MIC (Campylobacter jejuni; read-out: MIC (mg/L) 50%): 4 mg/L (≈ 10.9 µM) | MIC (Campylobacter jejuni; read-out: MIC (mg/L) 90%): 32 mg/L (≈ 87.6 µM) | MIC50 (Moraxella catarrhalis): 8 µg/mL (≈ 21.9 µM) | MIC90 (Moraxella catarrhalis): 16 µg/mL (≈ 43.8 µM) | MIC Range (Moraxella catarrhalis): 1 to 16 µg/mL | susceptible isolates (Shigella spp.; Shigella spp., breakpoints): 43% | MIC (Shigella spp.; read-out: MIC (mg/L) 50%): 128 mg/L (≈ 350 µM) | MIC (Shigella spp.; read-out: MIC (mg/L) 90%): > 128 mg/L | susceptibility of isolates (Aeromonas spp.; Aeromonas spp.): non susceptible | MIC (Aeromonas spp.; read-out: MIC (mg/L) 50%): > 128 mg/L | MIC (Aeromonas spp.; read-out: MIC (mg/L) 90%): > 128 mg/L | MIC90 (Staphylococcus aureus): 128 µg/mL (≈ 350 µM) | MIC90 (Staphylococcus aureus; Staphylococcus aureus): 64 µg/mL (≈ 175 µM) | MIC50 (Haemophilus influenzae): 1 µg/mL (≈ 2.74 µM) | MIC90 (Haemophilus influenzae): 64 µg/mL (≈ 175 µM) | MIC (Hafnia alvei; [1]): 16 to 128 mg/L (≈ 43.8 to 350 µM) | MIC (Hafnia alvei; read-out: MIC (mg/L) 50%): 64 mg/L (≈ 175 µM) | MIC (Hafnia alvei; read-out: MIC (mg/L) 90%): 64 mg/L (≈ 175 µM) | susceptible isolates (Salmonella spp.; Salmonella spp., breakpoints): 77% | MIC (Salmonella spp.; read-out: MIC (mg/L) 50%, Salmonella spp. N= 106): 1 mg/L (≈ 2.74 µM) | MIC (Salmonella spp.; read-out: MIC (mg/L) 90%, Salmonella spp. N= 106): > 128 mg/L | MIC Range (Streptococcus pneumoniae; Ciprofloxacin-susceptible (94)): ≤0.008 to 8 µg/mL | MIC Range (Streptococcus pneumoniae; Minocycline-resistant (37)): ≤0.008 to 8 µg/mL | MIC90 (Streptococcus pneumoniae; 18 h, Ciprofloxacin-resistant (21), ciprofloxacin MIC ≥8 µg/ml): 0.5 µg/mL (≈ 1.37 µM) | MIC (Streptococcus pneumoniae; 18 h, Ciprofloxacin-resistant (21)): 0.016 to 1 µg/mL (≈ 0.0438 to 2.74 µM) | MIC (Streptococcus pneumoniae; 18 h, Erythromycin-resistant (37)): 0.016 to 8 µg/mL (≈ 0.0438 to 21.9 µM) | MIC (Streptococcus pneumoniae; 18 h, Penicillin-resistant (19)): 0.25 to 8 µg/mL (≈ 0.684 to 21.9 µM) | MIC50 (Streptococcus pneumoniae; Ciprofloxacin-resistant (21)): 0.016 µg/mL (≈ 0.0438 µM) | MIC50 (Streptococcus pneumoniae; Ciprofloxacin-susceptible (94)): 0.063 µg/mL (≈ 0.172 µM) | MIC90 (Streptococcus pneumoniae; Ciprofloxacin-susceptible (94)): 0.5 µg/mL (≈ 1.37 µM) | MIC50 (Streptococcus pneumoniae; Erythromycin-resistant (37)): 0.063 µg/mL (≈ 0.172 µM) | MIC90 (Streptococcus pneumoniae; Erythromycin-resistant (37)): 0.5 µg/mL (≈ 1.37 µM) | MIC50 (Streptococcus pneumoniae; Minocycline-resistant (37)): 0.063 µg/mL (≈ 0.172 µM) | MIC90 (Streptococcus pneumoniae; Minocycline-resistant (37)): 0.5 µg/mL (≈ 1.37 µM) | MIC50 (Streptococcus pneumoniae; Penicillin-resistant (19)): 0.5 µg/mL (≈ 1.37 µM) | MIC90 (Streptococcus pneumoniae; Penicillin-resistant (19)): 8 µg/mL (≈ 21.9 µM)
